# Source: patent US9956199B2, “Chromane-like cyclic prenylflavonoids for the medical intervention in neurological disorders” (priority 2011, dated 2018)
# Entries after “also recorded” stand apart in the source; their conditions may differ.
# System: promoter of the neuronal precursor specific gene doublecortin (DCX)
# Assay: DCX promoter firefly-luciferase assay in primary fetal mouse brain derived (MEF) cells
# Type: cell-based
# Details: for stimulatory effect on the DCX promoter activity (FF/R relative to control): DCX promoter-luciferase transfected MEF cells, stimulated three days; for effect on DCX promoter induction: 10 μM, MEF cells, three days
# Method: Primary mouse embryonic day 16 forebrain (MEF) cultures were prepared as follows. Pregnant NMRI mice (Charles River Laboratories, Sulzfeld, Germany) were sacrificed and the uteri promptly removed and immersed in ice-cold Dulbecco's phosphate buffered saline solution—DPBS (PAA, Pasching, Austria). Eight embryonic day (E) 16 embryos were released from the uteri; forebrains were taken out, separated from surrounding tissues and mechanically dissociated using a razor blade. Subsequently the dissociated cells were collected by 5 min centrifugation at 120×g. The pellet was resuspended in 10 ml PPD-solution containing 0.01% papain (Worthington, England), 0.1% Dispasell (Roche, Basel, Switzerland), 0.01% DNasel (Worthington, England), 12.4 mM MgSO4 dissolved in HBSS w/o Ca/Mg (PAA, Pasching, Austria). The cell suspension was incubated at 37° C. and triturated every ten minutes for three times. The cell suspension was then centrifuged at 120×g for 5 minutes and washed three times in Neurobasal medium (Gibco BRL, Germany) supplemented with 2% (v/v) B27 (Gibco BRL, Karlsruhe), 2 mM L-glutamine, 100 μg/ml Penicillin/Streptomycin (PAN Biotech GmbH, Aidenbach, Germany). Finally, the cell preparation was resuspended in 12 ml Neurobasal medium supplemented with B27 (Gibco BRL, Karlsruhe), 2 mM L-glutamine, 100 μg/ml Penicillin/Streptomycin (PAN Biotech GmbH, Aidenbach, Germany), 20 ng/ml Epidermal Growth Factor—rhEGF, 20 ng/ml Fibroblast Growth Factor—rhFGF (R&D Systems, Wiesbaden-Nordenstadt, Germany) and 2 μg/ml Heparin (Sigma-Aldrich, Taufkirchen, Germany) (NB plus all), seeded in one T75 flask (TPP, Switzerland) and maintained in a humidified atmosphere at 37° C. and 5% CO2. […] On this day (day 2), half of the medium was refreshed and on day 4 cells were passaged. To passage the cells, the culture medium containing the floating neurospheres was collected in a 15 ml tube (Corning, Lowell, USA) and centrifuged at 120×g for 5 min. For dissociation, the pellet was resuspended in 500 μl Accutase (PAA, Pasching, Austria) and triturated using a 1 ml pipette. The cell suspension was incubated at 37° C. for 10 min, and then, 10 ml media were added. Cell number was determined by Trypan blue exclusion.
# Luciferase assays were performed using a noncommercial dual luciferase enzyme assay system (Dyer et al., 2000, Anal Biochem). In this system, a co-transfection with pDCX-Luci and a control vector driving Renilla-luciferase under the CMV promoter was performed. The two different luciferases have different specific substrates and, therefore, the DCX regulatory region driven firefly luciferase activity can be distinguished from CMV driven Renilla-luciferase. For analysis, the firefly luciferase activity was normalized against the CMV driven Renilla-luciferase. For each transfection reaction, a volume containing two million cells was transferred into a 15 ml tube (Corning, Lowell, USA), centrifuged at 120×g for 5 min to pellet the cells and resuspended in 100 μl Amaxa Mouse Neural Stem Cell Nucleofector Kit (Lonza, Kln, Germany). Then, pDCX-Luci (Karl, 2005) and pRL3 (Promega, Mannheim, Germany) (5 μg each) were added and the entire reaction mix was transferred into an Amaxa transfection cuvette. Transfection was done using the A-033 program in the Amaxa Nucleofector II (Lonza, Kln, Germany). Transfected cells were then pipetted into 20 ml of DMEM knockout medium (Gibco BRL, Germany) containing 20% serum replacement supplement (PAN Biotech GmbH, Aidenbach, Germany), 2 mM L-glutamine (PAN Biotech GmbH, Aidenbach, Germany) and 100 μg/ml Penicillin/Streptomycin (PAN Biotech GmbH, Aidenbach, Germany) (DMEM-KO plus supplements) in a 50 ml tube (Corning, Lowell, USA). From this resulting cell suspension, 200 μl per well were plated in Poly-Ornithine/Laminin coated 96-well-luciferase plates (Wimmer & Macho, Wels, Austria) in a cell density of 20.000 cells per well, as described herein below.
SMILES,stimulatory effect on the DCX promoter activity (FF/R relative to control),effect on DCX promoter induction
"COc1cc2c(c(O)c1C(=O)CCc1ccc(O)cc1)CCC(C)(C)O2 [Compound 1c, 1-(5-hydroxy-7-methoxy-2,2-dimethylchroman-6-yl)-3-(4-hydroxyphenyl)propan-1-one]",significantly and strongly induce; also recorded: very strong and significant stimulatory effect,
"COc1cc2c(c(O)c1C(=O)/C=C/c1ccc(O)c(O)c1)C=CC(C)(C)O2 [Compound 1e, (2E)-1-(5-Hydroxy-7-methoxy-2,2-dimethyl-2H-chromen-6-yl)-3-(3,4-dihydroxyphenyl)prop-2-en-1-one]",significantly and strongly induce; also recorded: very strong and significant stimulatory effect,
"COc1cc2c(c(O)c1C(=O)/C=C/c1ccc3c(c1)OCO3)C=CC(C)(C)O2 [Compound 1f, (2E)-3-(benzo[d][1,3]dioxol-6-yl)-1-(5-hydroxy-7-methoxy-2,2-dimethyl-2H-chromen-6-yl)prop-2-en-1-one]",significantly and strongly induce; also recorded: very strong and significant stimulatory effect,
"COc1cc2c(c(O)c1C(=O)/C=C/c1ccc(O)cc1)C=CC(C)(CCC=C(C)C)O2 (stereo not shown) [Compound 1g, (2E)-1-(5-hydroxy-7-methoxy-2-methyl-2-(4-methylpent-3-enyl)-2H-chromen-6-yl)-3-(4-hydroxyphenyl)prop-2-en-1-one]",,good results
"CC1(C)C=Cc2c(cc3c(c2O)C(=O)CC(c2ccc(O)cc2)O3)O1 (stereo not shown) [Compound 2a, 5-Hydroxy-2-(4-hydroxy-phenyl)-8,8-dimethyl-2,3-dihydro-8H-pyrano[3,2-g]chromen-4-one]",stimulatory effect on the DCX promoter activity was also observed,good results
"CC1(C)C=Cc2c(cc(O)c3c2OC(c2ccc(O)cc2)CC3=O)O1 (stereo not shown) [Compound 3b, 5-Hydroxy-2-(4-hydroxy-phenyl)-8,8-dimethyl-2,3-dihydro-8H-pyrano[2,3-f]chromen-4-one]",,good results
